Legend:
Type in all cases: biochemical
[1] = target: T1, UGP2 (Homo sapiens, UniProt Q16851); experiment: enzyme inhibition assay; conditions: residual activity, not per cent inhibition; inhibitor 25 µM printed for GAL-012, assumed for analogue; 5 min preincubation
T1 construct: recombinant, expressed in E. coli HMS174(DE3), Ni-NTA purified; plasmid from earlier work
T1 sequence (Q16851 1-508): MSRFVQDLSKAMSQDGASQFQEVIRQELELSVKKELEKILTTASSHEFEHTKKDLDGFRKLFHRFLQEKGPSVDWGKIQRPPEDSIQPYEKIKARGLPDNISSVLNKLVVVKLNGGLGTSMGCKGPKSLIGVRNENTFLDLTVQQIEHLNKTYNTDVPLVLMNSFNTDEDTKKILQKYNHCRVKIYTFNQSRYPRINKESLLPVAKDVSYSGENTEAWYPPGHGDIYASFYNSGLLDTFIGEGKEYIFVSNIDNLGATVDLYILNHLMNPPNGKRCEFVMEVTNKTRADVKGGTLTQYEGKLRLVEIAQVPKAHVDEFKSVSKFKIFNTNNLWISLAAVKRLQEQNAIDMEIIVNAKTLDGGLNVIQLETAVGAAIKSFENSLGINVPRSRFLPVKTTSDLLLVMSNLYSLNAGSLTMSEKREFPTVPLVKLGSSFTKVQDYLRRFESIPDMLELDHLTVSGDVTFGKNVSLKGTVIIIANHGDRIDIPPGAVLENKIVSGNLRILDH
From the text: enzyme inhibition assay on UGP2

[2] = target: T2, GALT (Homo sapiens, UniProt P07902); experiment: enzyme inhibition assay; conditions: residual activity, not per cent inhibition; inhibitor 25 µM printed for GAL-012, assumed for analogue; 5 min preincubation
T2 construct: recombinant, expressed in E. coli HMS174(DE3), Ni-NTA purified; plasmid from earlier work
From the text: enzyme inhibition assay on GALT

[3] = target: T3, AGX1/UAP1 (Homo sapiens, UniProt Q16222); experiment: enzyme inhibition assay; conditions: one value stated for GALT, UGP2 and AGX1/UAP1 together
T3 construct: full-length, cDNA from HepG2 cells, pET30A(+) in E. coli HMS174(DE3), Ni-NTA purified

[4] = target: T2, GALT; experiment: initial velocities, Lineweaver-Burk
[5] = target: T2, GALT; experiment: enzyme inhibition assay
From the text: enzyme inhibition assay on GALT | GAL-012, that inhibit a small family of UDP-hexose pyrophosphorylases-galactose pyro-phosphorylase (GALT)

[6] = target: T1, UGP2; experiment: enzyme inhibition assay
From the text: enzyme inhibition assay on UGP2 | UDP-glucose pyrophosphorylase (UGP2)

T2 sequence (P07902 whole entry): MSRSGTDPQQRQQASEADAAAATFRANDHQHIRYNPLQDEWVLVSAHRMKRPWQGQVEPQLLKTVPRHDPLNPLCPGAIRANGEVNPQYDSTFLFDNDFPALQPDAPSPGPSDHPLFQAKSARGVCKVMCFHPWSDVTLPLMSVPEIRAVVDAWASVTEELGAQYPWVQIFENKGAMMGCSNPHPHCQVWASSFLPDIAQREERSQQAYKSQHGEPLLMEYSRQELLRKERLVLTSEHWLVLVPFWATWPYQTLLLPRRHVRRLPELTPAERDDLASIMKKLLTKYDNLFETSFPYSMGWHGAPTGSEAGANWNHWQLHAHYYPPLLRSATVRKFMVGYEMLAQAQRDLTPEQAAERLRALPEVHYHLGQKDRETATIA
T3 sequence (Q16222 1-505 isoform Q16222-2): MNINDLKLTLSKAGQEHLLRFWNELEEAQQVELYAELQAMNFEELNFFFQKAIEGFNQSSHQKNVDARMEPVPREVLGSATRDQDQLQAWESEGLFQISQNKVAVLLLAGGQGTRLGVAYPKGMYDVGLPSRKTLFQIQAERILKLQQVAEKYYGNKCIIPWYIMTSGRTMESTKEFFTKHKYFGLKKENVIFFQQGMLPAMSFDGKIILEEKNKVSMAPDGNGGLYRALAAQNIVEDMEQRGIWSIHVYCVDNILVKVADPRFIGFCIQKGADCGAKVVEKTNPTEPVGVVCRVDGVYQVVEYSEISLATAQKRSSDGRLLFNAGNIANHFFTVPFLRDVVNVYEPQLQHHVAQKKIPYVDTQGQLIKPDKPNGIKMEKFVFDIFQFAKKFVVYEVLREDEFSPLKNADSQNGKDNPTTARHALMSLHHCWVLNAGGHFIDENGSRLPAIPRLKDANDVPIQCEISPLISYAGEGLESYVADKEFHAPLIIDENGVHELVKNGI

Enzyme Inhibitory Activity / UGP2 [1] [%]	Enzyme Inhibitory Activity / GALT [2] [%]	IC50 [3] [µM]	Ki [4] [µM]	IC50 [5] [µM]	IC50 [6] [µM]	SMILES
63.8 ± 4	63.4 ± 2.3	–	–	–	–	CN(C)/C=C/C(=O)c1ccc2c(c1)C(C)(C)C(=O)N2C [GAL-012-2]
–	–	30	~30	30	30	CN1C(=O)C(C)(C)c2cc(-c3ccnc(N)n3)ccc21 [GAL-012]

From article PMC7038226, “Discovery of Novel Inhibitors Targeting Multi-UDP-hexose Pyrophosphorylases as Anticancer Agents” (Molecules, 2020)
